Series [1] is described as follows: Saturation solubility of OA in different oils and surfactants. It counts as physicochemical. Particulars: thermodynamic from solid. The procedure:
The solubility of OA in different vehicles was defined by adding an excess of OA to 2 mL of each of the tested solvents/tensides: Water, Capmul PG-8/NF, Capmul PG-12/NF, Capryol 90, Captex 300, Captex 355, Cremophor EL, Etyl Oleate, Isoprpyl myristate, Labrafac lipophile, Labrafilm 1944, Labrafilm 2125, Labrasol, Labrasol ALF, Lauroglycol 90, Nigella Oil, PEG400, Soybean Oil, Sunflower Oil, Transcutol, Triacetine, Tween 20 and Tween 80. Each mixture of solvent and OA was stirred for 24 h at 25 °C, then it was centrifuged at 14,000× g for 10 min. After removing the precipitate, the supernatant was diluted with MeOH and analyzed by HPLC-DAD to determine the concentration of the OA. The analyses were performed in triplicate.

The test system of series [2] is RAW 264.7 cells. In words: Intracellular ROS production (DCFDA probe) under LPS. It counts as cell-based, murine. Particulars: 18 h. The procedure: In in vitro cell-based experiments, cells were incubated in serum-free DMEM medium (starvation medium) for 6 h and then incubated for an additional 18 h in the presence of LPS (1 μg/mL). LPS was used as a pro-inflammatory and pro-oxidant stimulus. Cells untreated and not exposed to LPS stimulus were used as controls. DCFDA fluorescent probe was used for sensitive and rapid quantification of intracellular ROS in response to LPS stimulus. Cells were seeded in a 96-well plate (20 × 10^3 cells/well) in complete medium and incubated overnight. After 6 h starvation, cells were treated for an additional 18 h with OA and OA loaded in the two different formulations (ME-1-OA and ME-2-OA) at various concentrations, in the absence or presence of LPS (1 μg/mL). […] Next, DCFDA probe (10 μM in PBS) was added to each well and incubated in the dark for 1.5 h at 37 °C. Fluorescence values were measured at excitation and emission wavelengths of 485 and 538 nm, respectively, using a fluorescence microplate reader (Fluoroskan Ascent^TM FL Microplate Fluorometer, Thermo Fisher Scientific, (Waltham, MA, USA). The level of intracellular ROS was normalized to cell viability. Data were reported in percentage terms compared with untreated control cells not exposed to LPS. The experiment was repeated in triplicate.

Details of series [3]: method as in PMID 17163409. Conditions: water; cited from earlier work.
Series [4] in a line: In vitro release, dialysis bag method, EtOH:PBS (30:70). It counts as physicochemical. Particulars: 6 h, 37 °C. The procedure: The release studies of OA from MEs in comparison to OA solution (SDS 0.5% p/V in H2O) were carried out with the dialysis bag method (regenerated cellulose dialysis membranes, Spectrum Laboratories, Inc., Breda, The Netherlands, MWCO 12–14 kD). Two mL of the OA-MEs or the solution were placed into a 12–14 kDa dialysis membrane and immersed into 200 mL of the release medium at 37 °C under magnetic stirring, using EtOH:PBS (30:70) as the release medium. In vitro release study was also carried out in the simulated gastric fluid (SGF) medium at pH 1.2 for 2 h followed by simulated intestinal fluid (SIF) at pH 6.8 for 6 h. The composition of the gastric fluid was 2 g of NaCl and 7 mL of HCl per liter of deionized water. The intestinal fluid was composed of 6.805 g of KH2PO4 and 0.896 g of NaOH per liter of deionized water. At predetermined time intervals, 1 mL of each release medium was withdrawn and replaced with an equal volume of fresh solution. The OA concentration in samples was finally determined by HPLC-DAD. All studies were performed in triplicate.
To evaluate the kinetics and mechanism of drug release from the microemulsions, the Korsmeyer–Peppas model, Hixson–Crowell model and Higuchi model, and the first order and zero order mathematical models, were used, and the best-fitted model was selected based on high regression coefficient (R^2) value for the release data.

Details of series [5]: method as in PMID 17163409. Conditions: rats, oral doses of 25 and 50 mg/kg; cited from earlier work.
The subject of series [6] is RAW 264.7 cells. Nature of the series: MTT assay, LPS-induced reduction of cell viability. It counts as cell-based, murine. Conditions: 18 h. The procedure: In in vitro cell-based experiments, cells were incubated in serum-free DMEM medium (starvation medium) for 6 h and then incubated for an additional 18 h in the presence of LPS (1 μg/mL). LPS was used as a pro-inflammatory and pro-oxidant stimulus. Cells untreated and not exposed to LPS stimulus were used as controls. The Methyl Thiazolyl Tetrazolium (MTT) assay was used to assess the viability of RAW 264.7 cells under various experimental conditions. Cells were seeded in a 96-well plate (15 × 10^3 cells/well) in complete medium and incubated overnight. Next, cells were starved for 6 h, and then treated for an additional 18 h with OA and OA loaded in the two different formulations (ME-1-OA and ME-2-OA) at various concentrations, in the absence or presence of LPS (1 μg/mL). […] Subsequently, cells were incubated with a 0.5 mg/mL solution of MTT (100 μL/well) for 1 h in the dark at 37 °C. After a wash in PBS, the insoluble formazan crystals were dissolved by adding 100 μL/well of dimethyl sulfoxide (DMSO). The iMARK microplate reader (Bio-Rad, Hercules, CA, USA) was used to measure absorbance values at a wavelength of 595 nm. Data were reported in percentage terms compared with untreated control cells not exposed to LPS. The experiment was repeated in triplicate.
For orientation: Tetrazolium assays rely on reduction of a dye to a coloured formazan, in cell work by metabolically active cells.

For series [7], the system named is RAW 264.7 cells. Nature of the series: MTT assay, cell viability without LPS. Conditions: 18 h, compared to untreated control cells. It counts as cell-based, murine. The procedure: The murine macrophages RAW 264.7 cell line (ATCC TIB-71™) was used in this study. Cells were grown in DMEM culture medium supplemented with L-glutamine (2 mM), streptomycin (100 µg/mL) and penicillin (100 U/mL), and 10% Heat-Inactivated Fetal Bovine Serum (HI-FBS), at 37 °C in 5% CO2 atmosphere. HI-FBS was obtained by incubating FBS at 55 °C for 30 min. Upon reaching 90% confluence, macrophage subcultures were prepared by scraping cells and adding appropriate dilutions of the cell suspension to a new plate. The culture medium was replaced every 3 days. The Methyl Thiazolyl Tetrazolium (MTT) assay was used to assess the viability of RAW 264.7 cells under various experimental conditions. Cells were seeded in a 96-well plate (15 × 10^3 cells/well) in complete medium and incubated overnight. Next, cells were starved for 6 h, and then treated for an additional 18 h with OA and OA loaded in the two different formulations (ME-1-OA and ME-2-OA) at various concentrations, in the absence or presence of LPS (1 μg/mL). […] Subsequently, cells were incubated with a 0.5 mg/mL solution of MTT (100 μL/well) for 1 h in the dark at 37 °C. After a wash in PBS, the insoluble formazan crystals were dissolved by adding 100 μL/well of dimethyl sulfoxide (DMSO). The iMARK microplate reader (Bio-Rad, Hercules, CA, USA) was used to measure absorbance values at a wavelength of 595 nm. […]

Series [8] in a line: Parallel artificial membrane permeability assay (PAMPA). It counts as in vitro ADME. Particulars: room temperature, read-out: permeability coefficient (Pe). The procedure: The test was carried out in a 96-well, MultiScreen-IP PAMPA (Millipore corporation) filter plate in order to evaluate the ability of compounds to diffuse from a donor compartment into an acceptor compartment. EtOH:PBS (30:70) mixture was selected as the acceptor medium for ME-1-OA and EtOH:PBS (5:95) for ME-2-OA. Each membrane was activated with a combination of lecithin and cholesterol, 10 g/L and 8 g/L, respectively, in 1,7-octadiene. Immediately after the deposition of the solution (5 µL), 250 µL of OA solution and appropriately diluted MEs-OA were added to each well of the donor plate. Each receptor plate was filled with 250 µL of acceptor medium. The plate was incubated at room temperature for 1 h. Then, the samples were withdrawn, properly diluted with methanol, centrifuged for 10 min at 14,000× g, and the OA concentration determined by HPLC-DAD. The permeability coefficient Pe (cm/s) was calculated according to the following equation: Pe=−ln 1−CAt/Ceq/A 1/VD+1/VAt where A is the active surface area (0.3 cm^2 × apparent porosity of the filter), VD and VA the well volume of the donor and acceptor plate (mL), respectively, t the incubation time (s), and CAt and CDt the concentration of OA in the acceptor and donor plate at time t, respectively. Ceq was calculated according to: Ceq=CDt × VD+CAt × VA/VA+VD

[9] abbreviates: LPS 1 μg/mL, compared with unstimulated control cells.

Values after ≈ are worked out from the molar mass of the structure shown.

Usually solubility stands for the dissolved amount per volume that the medium holds. Broadly, the aqueous solubility is the concentration that dissolves in the medium under given conditions. Consider `CC1(C)CC[C@]2(C(=O)O)CC[C@]3(C)C(=CC[C@@H]4[C@@]5(C)CC[C@H](O)C(C)(C)[C@@H]5CC[C@]43C)[C@@H]2C1` [OA, Oleanolic acid], for which the solubility at 24 h in series [1] (oil or lipid, in Capmul PG-8/NF, 24 h at 25 °C) was 19.72 ± 0.13 mg/mL (≈ 43.2 mM); in series [1] (oil or lipid, in Capmul PG-12/NF, 24 h at 25 °C), 16.4 ± 1.04 mg/mL (≈ 36 mM); in series [1] (oil or lipid, in Capryol 90, 24 h at 25 °C), 24.9 ± 0.9 mg/mL (≈ 54.6 mM); in series [1] (oil or lipid, in Captex 300, 24 h at 25 °C), 3.74 ± 0.1 mg/mL (≈ 8.19 mM); in series [1] (oil or lipid, in Captex 355, 24 h at 25 °C), 3.19 ± 0.24 mg/mL (≈ 6.98 mM); in series [1] (oil or lipid, in Etyloleate, 24 h at 25 °C), 2.13 ± 0.21 mg/mL (≈ 4.66 mM). For the same compound, the solubility at 24 h in series [1] (oil or lipid, in Isopropil myristate, 24 h at 25 °C) is 9.44 ± 1.05 mg/mL (≈ 20.7 mM); in series [1] (oil or lipid, in Labrafac Lipophile, 24 h at 25 °C), 13.3 ± 0.87 mg/mL (≈ 29.1 mM); in series [1] (oil or lipid, in Labrasol ALF, 24 h at 25 °C), 12 ± 0.84 mg/mL (≈ 26.2 mM); in series [1] (oil or lipid, in Labrasol, 24 h at 25 °C), 13.3 ± 0.21 mg/mL (≈ 29.1 mM); in series [1] (oil or lipid, in Lauroglycole 90, 24 h at 25 °C), 10.8 ± 0.56 mg/mL (≈ 23.5 mM); in series [1] (oil or lipid, in Nigella oil, 24 h at 25 °C), 35.4 ± 1.41 mg/mL (≈ 77.5 mM). Besides, the solubility at 24 h in series [1] (oil or lipid, in Soybean oil, 24 h at 25 °C) was found to be 1.06 ± 0.17 mg/mL (≈ 2.32 mM); in series [1] (oil or lipid, in Sunflower oil, 24 h at 25 °C), 11.8 ± 0.46 mg/mL (≈ 25.7 mM); in series [1] (oil or lipid, in Triacetine, 24 h at 25 °C), 3.09 ± 0.17 mg/mL (≈ 6.77 mM); in series [1] (organic solvent or mixture, in PEG 400, 24 h at 25 °C), 8.49 ± 0.58 mg/mL (≈ 18.6 mM); in series [1] (organic solvent or mixture, in Transcutol HP, 24 h at 25 °C) it was 41 ± 2.41 mg/mL (≈ 89.8 mM); in series [1] (in Cremophor EL, 24 h at 25 °C), 28.3 ± 0.93 mg/mL (≈ 62 mM). Besides, the solubility at 24 h in series [1] (in Tween 20, 24 h at 25 °C) was 6.19 ± 0.58 mg/mL (≈ 13.6 mM); in series [1] (in Tween 80, 24 h at 25 °C) it was 4.56 ± 0.36 mg/mL (≈ 9.98 mM). The “effect against LPS-induced intracellular ROS production” value with RAW 264.7 cells [2] (free OA 0.25–1 μg/mL with LPS 1 μg/mL) is reported as “mild but significant”. Besides, in series [3], the aqueous solubility is 1.75 ng/mL (≈ 3.83e-06 mM). In addition, the OA released in series [4] came to 23.6 ± 1.25%. The oral bioavailability in series [5] was 0.7%. Also, the “protective effect against LPS-induced reduction of cell viability” value in the series with RAW 264.7 cells [6] (free OA 0.05–1 μg/mL with LPS 1 μg/mL) is “no significant protective effect”. In the series on RAW 264.7 cells [7] (0.05–1 μg/mL), the “change in cell viability” value was “No significant change in cell viability”. Besides, the “reduction in cell viability” value in the series on RAW 264.7 cells [7] (2.5–10 μg/mL) was 25–30%. The Papp at 1 h in series [8] came to 0.369 ×10⁻⁶ cm/s.

As a reminder, the cell viability is a per cent measure of how many cells are alive, often set against a control. Lower therefore signals more harm to the cells. With “lipopolysaccharide [LPS, reference compound]”, in the series with RAW 264.7 cells [2] (setting [9]), the “intracellular ROS levels” value was 165 ± 7%. The compound also came in with a cell viability in the series with RAW 264.7 cells [6] (setting [9]) of 70 ± 7%.
